Experimental findings from patent US20260217711A1, “TRIAZOLOPYRIDINYL ETHER LINKED COMPOUNDS AS KINASE INHIBITORS” (Bristol-Myers Squibb Company, priority 2023, published 2026) are described below.

SMILES strings stand for the structures.

The subject of the first assay is MLKL phosphorylation (pMLKL) in HT29-L23 cells. In words: MLKL Phosphorylation High-Content Assay. Type of assay: cell-based. Conditions: Homo sapiens, 6 h, necroptosis induced with human TNFα, SMAC mimetic and Z-VAD, read-out: LE pMLKL HC IC50. How it is done: Following 6 h incubation at 37° C. […] MLKL phosphorylation was detected using anti-MLKL (phospho […]) antibody (Abcam #ab187091) (1:1000 dilution in Blocking Buffer [PBS supplemented with 0.1% BSA]) with ON incubation at 4° C. […] Following another three cycles of washes in PBS, the microplates were sealed, and cellular images were acquired in the Cellomics ArrayScan VTI high-content imager equipped with an X1 camera. […] The image sets were analyzed using the Compartmental Analysis Bioapplication software (Cellomics). The level of MLKL phosphorylation was quantified as […].
On to `COc1ccc(OCCC(F)(F)C(C)(O)c2ccc(F)cc2)c(F)c1-c1ccn2nc(N)nc2c1` (racemic) [Example 22, 5-(3-(2-amino-[1,2,4]triazolo[1,5-a]pyridin-7-yl)-2-fluoro-4-methoxyphenoxy)-3,3-difluoro-2-(4-fluorophenyl)pentan-2-ol], for which the IC50 turned out to be 0.9 nM.

As to `Cc1ccc(-c2ccn3nc(N)nc3c2)c(F)c1OCCC(F)(F)C(O)c1ccc(F)cc1` (racemic) [Example 66, 4-(3-(2-amino-[1,2,4]triazolo[1,5-a]pyridin-7-yl)-2-fluoro-6-methylphenoxy)-2,2-difluoro-1-(4-fluorophenyl)butan-1-ol], the concentration for half-maximal inhibition (IC50) stood at 0.3 nM.

On to `Nc1nc2cc(-c3cccc(OCCC(F)(F)C(O)c4ccccc4)c3F)ccn2n1` (racemic) [Example 69, 4-(3-(2-amino-[1,2,4]triazolo[1,5-a]pyridin-7-yl)-2-fluorophenoxy)-2,2-difluoro-1-phenylbutan-1-ol], for which the IC50 turned out to be 3 nM.

Regarding `Nc1nc2cc(-c3cccc(OCCC(F)(F)C(O)c4ccc(Cl)cc4)c3F)ccn2n1` (racemic) [Example 70, 4-(3-(2-amino-[1,2,4]triazolo[1,5-a]pyridin-7-yl)-2-fluorophenoxy)-1-(4-chlorophenyl)-2,2-difluorobutan-1-ol], the IC50 was determined as 1 nM.

`CC(O)(c1ccc(F)cc1)C(F)(F)CCOc1cccc(-c2ccn3nc(N)nc3c2)c1F` (racemic) [Example 73, 5-(3-(2-amino-[1,2,4]triazolo[1,5-a]pyridin-7-yl)-2-fluorophenoxy)-3,3-difluoro-2-(4-fluorophenyl)pentan-2-ol]: the concentration for half-maximal inhibition (IC50) stood at 0.5 nM.

Take `CC(O)(c1ccc(F)cc1)C(F)(F)CCOc1cnc(Cl)c(-c2ccn3nc(N)nc3c2)n1` (racemic) [Example 81, 5-((6-(2-amino-[1,2,4]triazolo[1,5-a]pyridin-7-yl)-5-chloropyrazin-2-yl)oxy)-3,3-difluoro-2-(4-fluorophenyl)pentan-2-ol]: the IC50 is 0.2 nM.

For `CC(C)CC(O)C(F)(F)CCOc1cccc(-c2ccn3nc(N)nc3c2)c1F` (single isomer, unassigned) [Example 6, 1-(3-(2-amino-[1,2,4]triazolo[1,5-a]pyridin-7-yl)-2-fluorophenoxy)-3,3-difluoro-6-methylheptan-4-ol], the concentration for half-maximal inhibition (IC50) was found to be 80 nM.

In the case of `CC(O)(c1ccc(F)cc1)C(F)(F)CCOc1cccc(-c2ccn3nc(N)nc3c2)c1C(F)F` (single isomer, unassigned) [Example 23, 5-(3-(2-amino-[1,2,4]triazolo[1,5-a]pyridin-7-yl)-2-(difluoromethyl)phenoxy)-3,3-difluoro-2-(4-fluorophenyl)pentan-2-ol], the IC50 turned out to be 6000 nM.

The same assay, now with this note: necroptosis induced with human TNFα, SMAC mimetic and Z-VAD, 6 h, read-out: LE pMLKL HC IC50.
With `CC(O)(c1ccc(F)cc1)C(F)(F)CCOc1c(Cl)ccc(-c2ccn3nc(N)nc3c2)c1F` (single isomer, unassigned) [Example 5, 5-(3-(2-amino-[1,2,4]triazolo[1,5-a]pyridin-7-yl)-6-chloro-2-fluorophenoxy)-3,3-difluoro-2-(4-fluorophenyl)pentan-2-ol], the IC50 worked out at 150 nM.

`CC(C)CC(O)C(F)(F)CCOc1cccc(-c2ccn3nc(N)nc3c2)c1F` (single isomer, unassigned) [Example 7, 1-(3-(2-amino-[1,2,4]triazolo[1,5-a]pyridin-7-yl)-2-fluorophenoxy)-3,3-difluoro-6-methylheptan-4-ol]: the IC50 stood at 160 nM.

For `CC(O)(c1ccc(F)cc1)C(F)(F)CCOc1ccc(F)c(-c2ccn3nc(N)nc3c2)c1F` (single isomer, unassigned) [Example 8, 5-(3-(2-amino-[1,2,4]triazolo[1,5-a]pyridin-7-yl)-2,4-difluorophenoxy)-3,3-difluoro-2-(4-fluorophenyl)pentan-2-ol], the IC50 is 9 nM.

In the case of `CC(O)(c1ccc(F)cc1)C(F)(F)CCOc1ccc(F)c(-c2ccn3nc(N)nc3c2)c1F` (single isomer, unassigned) [Example 9, 5-(3-(2-amino-[1,2,4]triazolo[1,5-a]pyridin-7-yl)-2,4-difluorophenoxy)-3,3-difluoro-2-(4-fluorophenyl)pentan-2-ol], the half-maximal inhibitory concentration (IC50) worked out at 0.1 nM.

In the case of `CC(O)(c1ccc(F)cc1)C(F)(F)CCOc1cc(F)cc(-c2ccn3nc(N)nc3c2)c1F` (single isomer, unassigned) [Example 10, 5-(3-(2-amino-[1,2,4]triazolo[1,5-a]pyridin-7-yl)-2,5-difluorophenoxy)-3,3-difluoro-2-(4-fluorophenyl)pentan-2-ol], the 50% inhibitory concentration (IC50) was found to be 1 nM.

For `CC(O)(c1ccc(F)cc1)C(F)(F)CCOc1cc(F)cc(-c2ccn3nc(N)nc3c2)c1F` (single isomer, unassigned) [Example 11, 5-(3-(2-amino-[1,2,4]triazolo[1,5-a]pyridin-7-yl)-2,5-difluorophenoxy)-3,3-difluoro-2-(4-fluorophenyl)pentan-2-ol], the IC50 was found to be 0.2 nM.

For the compound `[2H]C([2H])(CC(F)(F)C(C)(O)c1ccc(F)cc1)Oc1cccc(-c2ccn3nc(N)nc3c2)c1F` (single isomer, unassigned) [Example 12, 5-(3-(2-amino-[1,2,4]triazolo[1,5-a]pyridin-7-yl)-2-fluorophenoxy)-3,3-difluoro-2-(4-fluorophenyl)pentan-5,5-d2-2-ol], the IC50 came out at 1 nM.

Take `[2H]C([2H])(CC(F)(F)C(C)(O)c1ccc(F)cc1)Oc1c(F)ccc(-c2ccn3nc(N)nc3c2)c1F` (single isomer, unassigned) [Example 14, 5-(3-(2-amino-[1,2,4]triazolo[1,5-a]pyridin-7-yl)-2,6-difluorophenoxy)-3,3-difluoro-2-(4-fluorophenyl)pentan-5,5-d2-2-ol]: the IC50 worked out at 30 nM.

In the case of `CC(N)(c1ccc(F)cc1)C(F)(F)CCOc1c(F)ccc(-c2ccn3nc(N)nc3c2)c1F` (single isomer, unassigned) [Example 16, 7-(3-((4-amino-3,3-difluoro-4-(4-fluorophenyl)pentyl)oxy)-2,4-difluorophenyl)-[1,2,4]triazolo[1,5-a]pyridin-2-amine], the IC50 came out at 20 nM.

With `CC(N)(c1ccc(F)cc1)C(F)(F)CCOc1c(F)ccc(-c2ccn3nc(N)nc3c2)c1F` (single isomer, unassigned) [Example 17, 7-(3-((4-amino-3,3-difluoro-4-(4-fluorophenyl)pentyl)oxy)-2,4-difluorophenyl)-[1,2,4]triazolo[1,5-a]pyridin-2-amine], the IC50 turned out to be 60 nM.

On to `COc1ccc(-c2ccn3nc(N)nc3c2)c(F)c1OCCC(F)(F)C(C)(O)c1ccc(F)cc1` (single isomer, unassigned) [Example 18, 5-(3-(2-amino-[1,2,4]triazolo[1,5-a]pyridin-7-yl)-2-fluoro-6-methoxyphenoxy)-3,3-difluoro-2-(4-fluorophenyl)pentan-2-ol], for which the IC50 was 80 nM.

For `COc1ccc(-c2ccn3nc(N)nc3c2)c(F)c1OCCC(F)(F)C(C)(O)c1ccc(F)cc1` (single isomer, unassigned) [Example 19, 5-(3-(2-amino-[1,2,4]triazolo[1,5-a]pyridin-7-yl)-2-fluoro-6-methoxyphenoxy)-3,3-difluoro-2-(4-fluorophenyl)pentan-2-ol], the half-maximal inhibitory concentration (IC50) worked out at 0.4 nM.

Consider `COc1cc(F)c(OCCC(F)(F)C(C)(O)c2ccc(F)cc2)c(F)c1-c1ccn2nc(N)nc2c1` (single isomer, unassigned) [Example 20, 5-(3-(2-amino-[1,2,4]triazolo[1,5-a]pyridin-7-yl)-2,6-difluoro-4-methoxyphenoxy)-3,3-difluoro-2-(4-fluorophenyl)pentan-2-ol], for which the IC50 is 110 nM.

Regarding `COc1cc(F)c(OCCC(F)(F)C(C)(O)c2ccc(F)cc2)c(F)c1-c1ccn2nc(N)nc2c1` (single isomer, unassigned) [Example 21, 5-(3-(2-amino-[1,2,4]triazolo[1,5-a]pyridin-7-yl)-2,6-difluoro-4-methoxyphenoxy)-3,3-difluoro-2-(4-fluorophenyl)pentan-2-ol], the IC50 was determined as 1.1 nM.

As for `CC(O)(c1ccc(F)cc1)C(F)(F)CCOc1cccc(-c2ccn3nc(N)nc3c2)c1C(F)F` (single isomer, unassigned) [Example 24, 5-(3-(2-amino-[1,2,4]triazolo[1,5-a]pyridin-7-yl)-2-(difluoromethyl)phenoxy)-3,3-difluoro-2-(4-fluorophenyl)pentan-2-ol], the IC50 is 6000 nM.

With `CC(O)(c1ccc(F)cc1)C(F)(F)CCOc1c(C(F)F)ccc(-c2ccn3nc(N)nc3c2)c1F` (single isomer, unassigned) [Example 25, 5-(3-(2-amino-[1,2,4]triazolo[1,5-a]pyridin-7-yl)-6-(difluoromethyl)-2-fluorophenoxy)-3,3-difluoro-2-(4-fluorophenyl)pentan-2-ol], the IC50 turned out to be 1.5 nM.

Regarding `CC(O)(c1ccc(F)cc1)C(F)(F)CCOc1c(C(F)F)ccc(-c2ccn3nc(N)nc3c2)c1F` (single isomer, unassigned) [Example 26, 5-(3-(2-amino-[1,2,4]triazolo[1,5-a]pyridin-7-yl)-6-(difluoromethyl)-2-fluorophenoxy)-3,3-difluoro-2-(4-fluorophenyl)pentan-2-ol], the IC50 came to 0.3 nM.

Regarding `CC(O)(c1ccc(F)cn1)C(F)(F)CCOc1c(Cl)ccc(-c2ccn3nc(N)nc3c2)c1F` (single isomer, unassigned) [Example 32, 5-(3-(2-amino-[1,2,4]triazolo[1,5-a]pyridin-7-yl)-6-chloro-2-fluorophenoxy)-3,3-difluoro-2-(5-fluoropyridin-2-yl)pentan-2-ol], the IC50 is 30 nM.

Turning to `Nc1nc2cc(-c3ccc(F)c(OCCC(F)(F)C(O)c4ccc(F)cn4)c3F)ccn2n1` (single isomer, unassigned) [Example 33, 4-(3-(2-amino-[1,2,4]triazolo[1,5-a]pyridin-7-yl)-2,6-difluorophenoxy)-2,2-difluoro-1-(5-fluoropyridin-2-yl)butan-1-ol], the IC50 stood at 85 nM.
